# Assay results from PubChem BioAssay (NCI).
#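 Each compound was tested at five concentrations against cells in 96-well plates for 48 hours. The concentration for 50% growth inhibition is given as GI50. TGI marks complete inhibition of growth.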
# Experiments:
# Experiment in all cases: DTP human tumour cell line panel, 48 h
# A498 renal = system: A498 renal
# A549 NSCLC = system: A549 NSCLC
# ACHN renal = system: ACHN renal
# HL-60(TB) leukemia = system: HL-60(TB) leukemia
# KM12 colon = system: KM12 colon
# MDA-MB-435 = system: MDA-MB-435
# NCI-H226 lung = system: NCI-H226 lung
# NCI/ADR-RES ovarian = system: NCI/ADR-RES ovarian
# SN12C renal = system: SN12C renal
# UACC-257 melanoma = system: UACC-257 melanoma
SMILES,TGI (A498 renal),TGI (A549 NSCLC),TGI (ACHN renal),TGI (HL-60(TB) leukemia),TGI (KM12 colon),TGI (MDA-MB-435),TGI (NCI-H226 lung),TGI (NCI/ADR-RES ovarian),TGI (SN12C renal),TGI (UACC-257 melanoma),GI50 (A498 renal),GI50 (A549 NSCLC),GI50 (ACHN renal),GI50 (HL-60(TB) leukemia),GI50 (KM12 colon),GI50 (MDA-MB-435),GI50 (NCI-H226 lung),GI50 (NCI/ADR-RES ovarian),GI50 (SN12C renal),GI50 (UACC-257 melanoma)
CSC(=S)N/N=C/c1ccccc1,> 100 µM,> 100 µM,> 100 µM,> 100 µM,> 100 µM,> 100 µM,> 100 µM,> 100 µM,> 100 µM,> 100 µM,–,–,–,–,–,–,–,–,–,–
CC1(C)Cc2cccc(OCC(O)CN3CCN(c4ccc(F)cc4)CC3)c2O1 (stereo not given),35.1 µM,> 50 µM,25 µM,> 50 µM,> 50 µM,25.7 µM,> 50 µM,45.6 µM,> 50 µM,16.9 µM,14000 nM,19.4 µM,9.65 µM,16.4 µM,15.3 µM,10.5 µM,17.1 µM,12.2 µM,18.9 µM,6.34 µM
CCCN(CCC)c1ccc(C=O)cc1,4.15 µM,> 100 µM,> 100 µM,> 84 µM,> 100 µM,> 100 µM,> 100 µM,> 100 µM,> 100 µM,98.2 µM,1810 nM,> 100 µM,77.7 µM,27 µM,> 70.8 µM,39.7 µM,30 µM,56.3 µM,> 96.2 µM,35 µM
Cc1ccc(Cl)cc1Nc1nc(C(F)(F)F)ccc1C(=O)N/N=C/c1c(Cl)cccc1Cl,5.61 µM,> 100 µM,6.14 µM,3.36 µM,9.08 µM,11.6 µM,4.53 µM,6.77 µM,12.2 µM,7.69 µM,929 nM,1.5 µM,1.08 µM,0.863 µM,0.542 µM,2.15 µM,1.1 µM,0.522 µM,1.2 µM,2.49 µM
C[N+](C)(C)CCC(=O)N1C/C(=C\c2ccccc2)C(=O)/C(=C/c2ccccc2)C1,35.3 µM,32.1 µM,15.3 µM,9.44 µM,3.11 µM,5.49 µM,20 µM,3.3 µM,4.59 µM,28.2 µM,–,–,–,–,–,–,–,–,–,–
COc1cc(C(=O)NC2CCN(C)CC2)ccc1Nc1ncc2c(n1)N(C1CCCC1)CC(F)(F)C(=O)N2C,0.272 µM,4.38 µM,14.9 µM,0.0223 µM,14.1 µM,< 0.01 µM,14.3 µM,15.7 µM,15 µM,6.61 µM,28 nM,< 0.0193 µM,0.542 µM,< 0.01 µM,< 0.01 µM,< 0.01 µM,2.17 µM,0.964 µM,0.124 µM,0.222 µM
O=C(O)c1cc(N/C=C2\C(=O)c3ccccc3OC2O)ccc1O (stereo not given),77.5 µg/mL,> 150 µg/mL,82.7 µg/mL,> 150 µg/mL,51.6 µg/mL,79.2 µg/mL,98.1 µg/mL,82.8 µg/mL,97.3 µg/mL,93.7 µg/mL,35.8 µg/mL,53.7 µg/mL,28.3 µg/mL,9.18 µg/mL,25.7 µg/mL,23.3 µg/mL,37.7 µg/mL,21.1 µg/mL,25.5 µg/mL,33.4 µg/mL
CCOC(=O)c1c[nH]c2c(OCc3ccccc3)c3ccccc3c(O)c2c1=O,> 78.1 µM,> 56 µM,33.4 µM,> 100 µM,> 84.5 µM,15.6 µM,20.8 µM,> 64.7 µM,> 100 µM,6.63 µM,27300 nM,9.33 µM,4.97 µM,40.7 µM,6.89 µM,6.44 µM,4.28 µM,10.9 µM,22.2 µM,2.52 µM
O=C1Nc2cc(Cl)ccc2Oc2cc(Oc3ccccc3)ccc21,9.72 µM,33.8 µM,76.6 µM,> 100 µM,14 µM,5.85 µM,55.8 µM,9.77 µM,71.1 µM,> 100 µM,1690 nM,4.66 µM,12.2 µM,3.6 µM,2.09 µM,0.761 µM,6.41 µM,2.53 µM,5.52 µM,16 µM
COc1ccc2c(CC(=O)O)cc(=O)oc2c1,> 100 µM,> 100 µM,> 100 µM,> 100 µM,> 100 µM,> 100 µM,> 100 µM,> 100 µM,> 100 µM,> 100 µM,–,–,–,–,–,–,–,–,–,–
CN(CCCCCl)P(=O)(OCc1ccc([N+](=O)[O-])o1)C(F)(F)c1ccc(CC(=O)N[C@@H](CC(=O)O)C(=O)N[C@@H](Cc2ccc(C(F)(F)P(=O)(OCc3ccc([N+](=O)[O-])o3)N(C)CCCCCl)cc2)C(N)=O)cc1 (stereo not given in full),87.5 µM,> 100 µM,> 100 µM,64.5 µM,> 100 µM,> 100 µM,> 100 µM,> 100 µM,> 100 µM,> 100 µM,33000 nM,> 100 µM,> 100 µM,28 µM,43 µM,49.1 µM,> 100 µM,> 100 µM,> 100 µM,> 100 µM
